Source: patent US9034876B2, “Treatment of chronic inflammation with a 1,2,4-triazolo [1,5a] pyridine derivative” (Cephalon, Inc., priority 2010, dated 2015)

How the values were obtained:
[1] = test system: JAK2 in irf-bla TF-1 cells; experiment: GeneBLAzer reporter assay in irf-bla TF-1 cells; assay type: cell-based
Procedure: The effect of Compound A in a cellular system was measured using irf-bla TF-1 cells (JAK2) and Ba/F3 (JAK3) cells. These cells were not tested for the presence of JAK1 and TYK2. IC50 values are reported as the average±standard deviation of at least 4 independent determinations.

[2] = test system: collagen-antibody-induced arthritis (CAIA); experiment: Collagen-antibody-induced arthritis (CAIA) model, paw size and clinical score; assay type: in vivo, female DBA/1 mice; conditions: 55 mg/kg p.o. b.i.d., day 13
Procedure: Female DBA/1 mice were injected i.v. (intravenous) with purified anti-collagen type II antibodies, then given 25 μg of LPS (lipopolysaccharide), i.p. (intraperitoneal), three days later to induce arthritis by day 5. Mice that met the arthritis criteria score of 1 per paw were entered into the study. Compound A was administered orally, b.i.d. (twice daily), for all doses tested; Dex (Dexamethasone) was administered at 1.5 mg/kg three times a week, i.p.; and vehicle (PEG400+1% DMSO) was administered orally.
Anti-collagen type II antibody was delivered to mice i.v. and oral administration of Compound A was initiated upon meeting minimum score requirements and entry into dosage groups. Compound A was administered at 10, 30 or 55 mg/kg p.o. twice daily for two weeks total. Vehicle groups were treated with PEG400 in 1% DMSO; dexamethasone (Dex) was used as a glucocorticoid standard of care reference. Dex was given i.p. in saline alone, three times a week (every 48 hours) at 1.5 mg/kg of total body mass.
Acclimated mice were randomized, pre-bled and measured for baseline inflammation before any studies were initiated. On day 0, DBA/1 female mice were injected i.v. with 100 μl of a saline solution containing 1.5 mg of a 10 mg/ml cocktail of arthritogenic monoclonal antibodies directed against different epitopes of collagen type II (Chondrex, Redmond, Wash.) suspended in saline. […]

[3] = test system: phospho-STAT3; experiment: CIA model, paw phospho-STAT3; assay type: in vivo, female DBA/1 mice
Procedure: Female DBA/1 mice were injected with purified collagen type II in CFA i.d. (intradermal), then boosted with collagen type II in IFA, s.c., (subcutaneous) on day 21 followed by a day 28 LPS injection i.p. to induce arthritis (CIA). Mice that scored a ‘1’ or better for each paw were considered arthritic and entered into the study. Treatments started after 7-10 days of arthritis induction. Compound A was provided orally, b.i.d., for all doses tested; Dex was administered i.p. at 1.5 mg/kg, three times a week; and vehicle (PEG400+1% DMSO) was provided orally, b.i.d.
FIG. 4B: Depicts Phospho-STAT3 expression in arthritic paws for each treatment group.
A more detailed description of this method can be found described elsewhere (Lu et al, 2010, submitted for publication). Briefly, the front (including carpus) and back (including tarsus) right paws were collected and frozen in dry-ice cooled isopentane and stored at −80° C. until use. The paws were cut to 2 mm×2 mm segments and kept on dry-ice in round bottom polypropylene tubes. […] Protein concentration was measured using a BCA protein assay (Pierce, Rockford, Ill.) and adjusted to 3 mg/ml. […]

[4] = test system: CB11-specific, IFNγ secreting T cells; experiment: CIA model, ex vivo IFNγ T-cell Elispot of splenocytes; assay type: in vivo, female DBA/1 mice; conditions: four weeks
From the text: FIG. 4D: Depicts IFNγ Elispot® results from stimulated splenocytes from treated mice challenged with collagen type II fragment (CB11), OVA or media alone. The Elispot images shown in the figure are representative of each treatment group and the bar graph represents data using four mice from each treatment group. Spots were counted using a C.T.L. Immunospot Elispot scanner and spot counting software.
For CIA experiments, Millipore nitrocellulose IP filter plates (Millipore, Billerica, Mass.) were coated with either anti-mouse IFNγ (AN18, MabTech, Mariemont, Ohio) or anti-mouse IL-4 (11B11, eBioscience, San Diego, Calif.) at 7 μg/ml or 2 μg/ml, respectively, in sterile PBS at 60 μl per well and incubated for 3 hours at RT or overnight at 4° C. Coated wells were washed with PBS plus 0.1% Tween-20 and patted semi-dry before blocking using complete media for at least 1 hour before use. Purified mouse collagen type II (Chrondrex, Redmond, Wash.), type I (Chrondrex, Redmond, Wash.) or third party control chicken ovalbumin (OVA) (Sigma, St. Louis, Mo.) were used to challenge 1 million processed splenocytes per well at 10 μg/ml of total antigen concentration. Media alone were used as background controls, OVA as third party controls and PMA plus Ionomycin as positive controls for IFNγ and IL-4 release by Th1 and Th2 cells, respectively.

[5] = test system: collagen-induced arthritis (CIA); experiment: CIA model, joint histopathology; assay type: in vivo, female DBA/1 mice
Procedure: Tissues were also stained with Safranin-O to detect matrix degeneration and this information was used for scoring. The data in the figure represents mean±SEM, statistics were performed using Prism® software and 2-way ANOVA analysis, *p<0.05, **p<0.01, ***p<0.001. H&E and safranin-O stained paraffin wax embedded carpus and tarsus sections were scored by a board certified, independent pathologist for the criteria described in the materials and methods. Tabulated data represent mean±SD values for the tarsus only. Statistics were performed using 2-way ANOVA analysis, *p<0.05; **p<0.01; ***p<0.001, N=5 mice per group tested. At the end of each experiment, front and hind paws (including carpus and tarsus) were removed from the body of the animal for histological analysis. Skin from the ends of the digits was removed and the metatarsal region skin perforated using surgical scissors to allow full decalcification. Samples followed a decalcification procedure using formic acid as described elsewhere [21, 22]. After 7-10 days of decalcification, samples were washed for 2 hours in distilled water and stored in 70% ethanol at 4° C. until ready to be processed. Samples were paraffin embedded, sectioned and stained with Hematoxylin and Eosin (H&E) stain, also Safranin-O for matrix degradation (images not shown, used by pathologist for scoring). All histology work was performed at the Wistar Institute (Philadelphia, Pa.). […] A total of five mice from each group were analyzed via histopathology, 10× representative images are shown for each group tested.

[6] = CIA model, body mass; assay type: in vivo, female DBA/1 mice
Procedure: FIGS. 9A and 9B: Depict the effect of treatment on body mass and serum anti-CII autoantibody concentration in a CIA model.
Female DBA/1 mice were injected with purified collagen type II in CFA i.d. (intradermal) then boosted with collagen type II in IFA s.c. (subcutaneous) on day 21 followed by a day 28 LPS injection i.p. (intraperitoneal) to induce arthritis (CIA). Mice that scored a ‘1’ or better for each paw were considered arthritic and entered into the study, treatments started after several days of full arthritis. Compound A was provided orally, b.i.d., for each dose tested; Dex was provided i.p. at 1.5 mg/kg three times a week; vehicle (PEG400+1% DMSO) was provided orally, b.i.d.

[7] = test system: carrageenan-induced inflammation; experiment: Air pouch mouse model of carrageenan-induced inflammation; assay type: in vivo, Balb/c mice; conditions: 10, 30 and 55 mg/kg into the pouch, 24 hours, p<0.05 vs vehicle
Procedure: Balb/c mice were induced for air pouch initiation (see materials and methods) using sterile air. Carrageenan at 1% in saline was injected directly into the pouch followed by treatment with Compound A or dexamethasone (Dex) 1 hour later. One-hundred microliters of air pouch fluid was removed 24 hours post-administration. FIG. 5A: Depicts total cell count using 7-AAD exclusion via flow cytometeric analysis and BD TruCount beads. FIG. 5B: Depicts fluid supernatant IL-6 concentration as determined by Luminex® cytokine analysis. FIG. 5C: Depicts hemoglobin content as assessed by the Drabkin's assay. All data shown in the figures represent mean±SEM, and statistics were performed using 2-way ANOVA analysis, *p<0.05, N=5 mice per group tested. To test the impact of Compound A inhibition of JAK2 at the cellular level, the mouse air pouch model (APM) was utilized. Air-filled subcutaneous pouches were maintained under sterile conditions and injected with 1% carrageenan simultaneously with Compound A at 10, 30 and 55 mg/kg. Saline alone (vehicle) or dexamethasone at 1.5 mg/kg were used as controls. […] Briefly, Balb/c mice were injected s.c. with 4 ml of sterile air on day −5, baseline measurements were recorded and mice were randomized into groups. Mice entered the study upon air pouch maintenance by day −3 when 2 ml of sterile air is injected for air pouch maintenance. On day 0 mice were given a 1% carrageenan (Sigma, St. Louis, Mo.) injection suspended in saline directly into the air pouch. This induces a rapid inflammatory influx of primarily neutrophils and macrophage. The test compounds were provided in saline at mg/kg concentrations in 100 μl total volume and introduced directly into the air pouch simultaneously with the carrageenan injection, (1% carrageenan in saline). […] Cellular exudates were centrifuged, supernatants were processed for Luminex cytokine analysis, and the cell pellets were counted for total live and dead cells. […] Hemoglobin content was determined using the Drabkin's assay (Sigma, St. Louis, Mo.).

[8] = target: human JAK2 (Homo sapiens, UniProt O60674); conditions: read-out: IC50, JAK2 kinase, isolated human enzyme; average±standard deviation of at least 4 determinations; 0.2 μM ATP
Chain of human JAK2 (O60674 whole entry): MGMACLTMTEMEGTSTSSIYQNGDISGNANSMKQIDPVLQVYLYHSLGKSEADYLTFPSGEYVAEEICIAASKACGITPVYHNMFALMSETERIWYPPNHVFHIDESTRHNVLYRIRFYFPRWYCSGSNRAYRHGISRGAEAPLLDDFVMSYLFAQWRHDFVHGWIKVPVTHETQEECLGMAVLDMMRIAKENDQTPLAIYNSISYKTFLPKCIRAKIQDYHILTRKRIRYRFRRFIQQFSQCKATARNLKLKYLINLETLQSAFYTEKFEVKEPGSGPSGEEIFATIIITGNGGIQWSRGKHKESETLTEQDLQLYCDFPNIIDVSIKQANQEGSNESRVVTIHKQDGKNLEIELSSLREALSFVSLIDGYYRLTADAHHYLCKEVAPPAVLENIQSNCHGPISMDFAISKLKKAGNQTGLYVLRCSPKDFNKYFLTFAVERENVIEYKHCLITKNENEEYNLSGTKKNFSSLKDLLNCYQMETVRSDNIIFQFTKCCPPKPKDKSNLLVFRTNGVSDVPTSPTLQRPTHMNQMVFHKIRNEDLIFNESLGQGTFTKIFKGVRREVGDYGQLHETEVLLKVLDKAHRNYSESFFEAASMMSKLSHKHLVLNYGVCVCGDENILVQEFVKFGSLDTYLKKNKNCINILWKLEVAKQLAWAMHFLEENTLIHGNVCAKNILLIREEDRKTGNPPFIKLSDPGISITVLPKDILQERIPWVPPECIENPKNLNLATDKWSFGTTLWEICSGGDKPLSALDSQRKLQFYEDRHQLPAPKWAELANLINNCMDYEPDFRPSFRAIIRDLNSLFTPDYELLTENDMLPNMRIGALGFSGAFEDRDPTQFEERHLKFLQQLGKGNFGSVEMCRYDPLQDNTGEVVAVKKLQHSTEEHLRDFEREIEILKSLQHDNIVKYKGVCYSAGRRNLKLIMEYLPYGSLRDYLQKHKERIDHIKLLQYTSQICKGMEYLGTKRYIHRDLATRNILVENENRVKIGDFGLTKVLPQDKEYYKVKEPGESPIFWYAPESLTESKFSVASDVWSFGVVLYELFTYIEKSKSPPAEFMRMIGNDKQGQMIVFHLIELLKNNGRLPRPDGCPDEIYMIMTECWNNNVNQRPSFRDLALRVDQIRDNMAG
Procedure: IC50 values are reported as the average±standard deviation of at least 4 independent determinations.
The kinase activity of baculovirus-expressed human JAK kinases (JAK1, JAK2, JAK3 or TYK2) was measured using the time-resolved fluorescence (TRF) detection system as described elsewhere [17]. Each 96-well Costar high binding plate (Corning, Corning, N.Y.) was coated with 100 μl/well of 10 μg/ml neutravidin (Pierce Biotechnology, Rockford, Ill.) in TBS at 37° C. for 2 h, followed by 100 μl/well of 1 μg/ml 15-mer peptide substrate (biotinyl-amino-hexanoyl-[sequence]-amide, Infinity Biotech Research and Resource, Aston, Pa.) at 37° C. for 1 h. The kinase assay mixture (total volume=100 μl/well) consisting of 20 mM HEPES (pH 7.2), ATP (Km level for each kinase), 1 mM MnCl2, 0.1% BSA, and test Compound (diluted in DMSO; 2.5% DMSO final in assay) was added to the assay plate. The concentrations of ATP used were as follows: 0.2 μM ATP for JAK1, JAK2 and TYK2; 0.1 μM ATP for JAK3. Enzyme was added and the reaction was allowed to proceed for 20 min at RT. […] Plates were agitated for 10 min and the fluorescence of the resulting solution measured using the PerkinElmer EnVision® 2102 or 2104 multi-label plate reader. IC50 values were determined using the 4-parameter logistic model in XLFit® 4 (IDBS, Ltd., Guildford, UK).

CN1CCN(c2cccc(Nc3nc4c(-c5ccc(S(C)(=O)=O)cc5)cccn4n3)c2)CC1 [Compound A, [8-(4-Methanesulfonyl-phenyl)-[1,2,4]triazolo[1,5-a]pyridin-2-yl]-[3-(4-methyl-piperazin-1-yl)-phenyl]-amine]
inhibition of JAK2, reporter assay [1]: inhibits JAK2 in irf-bla TF-1 cells
drop in mean paw thickness or size compared to vehicle [2]: 1.3 fold
reduction in total clinical score compared to vehicle [2]: 2.4 fold
paw pSTAT3 ([3]; 55 mg/kg, p<0.01): significantly reduced
paw pSTAT3 ([3]; 100 mg/kg, p<0.001): significantly reduced
frequency of CB11-specific, IFNγ secreting T cells ([4]; 55 mg/kg b.i.d. p.o.): significant reduction in the frequency of CB11-specific, IFNγ secreting T cells
frequency of CB11-specific, IFNγ secreting T cells ([4]; 100 mg/kg b.i.d. p.o.): significant reduction in the frequency of CB11-specific, IFNγ secreting T cells
histological protection of the tarsus ([5]; 55 mg/kg): provided protection in the tarsus
histopathology scores, significance versus vehicle ([5]; 55 mg/kg, p<0.05): Significance was only observed for the degree of inflammation
histological protection of carpus and tarsus ([5]; 100 mg/kg): provided the best protection for both regions
histological protection of the tarsus ([5]; 100 mg/kg): provided protection in the tarsus
histopathology scores, significance versus vehicle ([5]; 100 mg/kg, p<0.01): Significance was only observed for the degree of inflammation
body mass [6]: did not significantly change
air pouch fluid IL-6 expression [7]: inhibit the expression of IL-6 to below that of Dex
angiogenesis, total hemoglobin content (Drabkin's assay) [7]: angiogenesis was impacted
cellular accumulation in the air pouch (total cell count) [7]: significantly decreased cellular accumulation in the air pouch
IC50 [8]: 1.8 ± 0.6 nM
